Marks after values point to notes of the source that are not given here.
Legend:
heart rate = assay: Side-effects: increase in heart rate after drug instillation
Experimental: In the following the heart rate is expressed as a percentage of the pre-value (heart beats per minute) preceding the drug administration. The increase in heart rate expressed in percent corresponds to the difference of heart rate between the vehicle group and the treated group recorded 20 minutes after drug instillation.

[1] = system: citric acid induced cough in OVA sensitised guinea pigs; assay: Anti-tussive activity: citric acid induced cough in OVA sensitised guinea pigs (whole body plethysmograph); assay type: in vivo, guinea pig; conditions: for Number of coughs: 2 h before 15 min citric acid challenge, mean; for Anti-tussive effect (%): summary
Experimental: Animals—Male albino Dunkin-Hartley guinea pigs (350-550 g; Charles River WIGA GmbH, Sulzfeld, Germany) were used. The animals were housed in groups of 6 in solid floor cages and allowed free access to water and standard food. The guinea pigs were kept in rooms maintained at a constant temperature (22° C.±2° C.) and humidity (60%±15%), with a 12 h light cycle. The experiments were approved by the ethical committee Regierungspräsidium Tübingen, Germany.
OVA asthma model—On days 1 and 2, the guinea pigs were immunised by subcutaneous injection of 0.5 ml per animal of a solution of ovalbumin (OVA) (40 μg/ml) and aluminium hydroxide [Al (OH)3]. On day 14, these sensitised guinea pigs were challenged with OVA by exposure to an OVA aerosol (1.25 mg/ml) for 5 minutes, using a Dräger Inhalette® (Dräger Medical AG & Co. KgaA, Lübeck, Germany). 30 minutes prior to the challenge, pyrilamine maleate (2 mg/kg i.p.) was administered to protect the animals against bronchospasm. On day 15, the citric acid challenge was given to induce cough. 2 hours before the challenge, the test compound or vehicle (saline) was delivered by intratracheal (i.t.) administration (0.5 ml/kg) under anaesthesia with isoflurane (Forene®, Abbott GmbH and CO. KG, Wiesbaden, Germany).
Cough recording—Two hours after i.t. application, the citric acid challenge was performed. A whole body plethysmograph manufactured for guinea pigs (Buxco Research Systems, Wilmington, N.C., USA) was used for the experiments. Conscious animals were individually placed, unrestrained, into a whole body plethysmograph chamber. A solution of citric acid (0.4 M) was nebulised using the Aerosol Delivery System (Buxco) and administered to the animals at a rate of nebulisation of 0.18 ml/min for 15 min. During the challenge, airflow in the chamber was recorded by the Buxco system and analysed for the transient increase in airflow produced by cough, in which rapid inspiration is followed by rapid expiration. The system was able to distinguish coughs from other expiratory responses, and the number of coughs was counted.
Data analysis—Data from the treatment groups were compared with the vehicle group. Data are expressed as mean ±SEM of coughs produced by guinea pigs within each group during a 15 minutes citric acid aerosol exposure. Mean values were statistically analyzed by one-way analysis of variance (ANOVA) followed by the Dunnett's Multiple comparisons Test to evaluate significant differences between groups with p<0.05 being considered significant.

[2] = system: acetylcholine induced bronchoconstriction in guinea pigs; assay: Bronchoprotection: acetylcholine induced bronchospasm in anaesthetised guinea pigs (Konzett-Rössler); assay type: in vivo, guinea pig; conditions: for Bronchoconstriction (ml overflow): 2 h before acetylcholine 14 μg/kg i.v., mean; for bronchoprotective FED: first dose without side-effect displaying 80 to 100% efficacy
Experimental: Animal-Male and female Dunkin-Harley guinea pigs were obtained from the Experimental Animal Breeding Centre of Harlan Winkelmann (Germany). After fasting overnight, but with free access to drinking water, animals with body weight of 400-500 g are used. Anesthesia and preparation-The anesthesia was induced by intraperitoneal injection of 50 mg/kg pentobarbital. Anesthesia was prolonged by intravenous infusion of pentobarbital (15 mg/kg/h) via the jugular vein. A tracheal cannula was introduced after tracheotomy for artificial ventilation. The internal jugular vein was cannulated for acetylcholine injection. Instrumentation-Bronchospasm was recorded with a modified version of the method of Konzett-Röβler described by […] et al, 1997. […] Lung resistance was measured as ml of overflow and was recorded, amplified and saved under Notocord files (Notocord-hem, Notocord, France). Blood pressure and heart rate were monitored from a carotid artery in order to check the anesthesia and the variability of the preparation. Experimental protocol-2 hours before acetylcholine challenge, guinea pigs were given the test compound or its vehicle intra-tracheally under a slight isoflurane anesthesia. 30 minutes before acetylcholine challenge, lung resistance and blood pressure were measured under anesthesia. […] Data analysis-Data from the treatment groups were compared with the vehicle group. Data are expressed as mean ±SD of ml of overflow. […] Mean values were statistically analyzed by one-way analysis of variance (ANOVA) followed by the Dunnett's Multiple comparisons Test to evaluate significant differences between groups with p<0.05 being considered significant.

cough reflex = conditions: inhaled therapy in asthma, COPD or IPF; therapeutic doses; cited from earlier work
[3] = Dunkin-Hartley, guinea pig, in vivo, 20 min
[4] = 1 μg/kg i.t., inhibition of acetylcholine bronchoconstriction

## COc1ccc(CC(C)(C)NC[C@H](O)c2cc(O)cc3c2OCC(=O)N3)cc1 [Olodaterol]
Heart rate; [3]
  Dose inducing side-effect (increase in heart rate): 30 µg/kg
  ratio dose inducing side-effect/antitussive FED: 300
  ratio dose inducing side-effect/bronchoprotective FED: 100
Heart rate; in vivo
  addiction or arrhythmia: no addiction or arrhythmia
[1]; 0.01 μg/kg i.t.
  Inhibition of cough (%) vs vehicle: 33%
  Number of coughs: 16
[1]; 0.03 μg/kg i.t.
  Inhibition of cough (%) vs vehicle: 58 * %
  Number of coughs: 10
[1]; 0.1 μg/kg i.t.
  Inhibition of cough (%) vs vehicle: 79 * %
  Number of coughs: 5
[1]; 0.3 μg/kg i.t.
  Inhibition of cough (%) vs vehicle: 79 * %
  Number of coughs: 5
[1]; 1 μg/kg i.t.
  Inhibition of cough (%) vs vehicle: 75 * %
  Number of coughs: 6
[1]; 3 μg/kg i.t.
  Inhibition of cough (%) vs vehicle: 79 * %
  Number of coughs: 5
[1]; first dose without side-effect displaying 70 to 80% efficacy
  antitussive Fully Effective Dose (FED): 0.1 µg/kg
[1]; 0.01 μg/kg
  Anti-tussive effect (%): 33%
[1]; 0.03 μg/kg
  Anti-tussive effect (%): 58%
[1]; 0.1 μg/kg
  Anti-tussive effect (%): 79%
[1]; 0.3 μg/kg
  Anti-tussive effect (%): 79%
[1]; 1 μg/kg
  Anti-tussive effect (%): 75%
[2]; 0.01 μg/kg i.t.
  Bronchoconstriction (ml overflow): 25 mL
[2]; 0.01 μg/kg i.t., inhibition of acetylcholine bronchoconstriction
  Bronchoprotection (%): 32%
[2]; 0.03 μg/kg i.t.
  Bronchoconstriction (ml overflow): 14 mL
[2]; 0.03 μg/kg i.t., inhibition of acetylcholine bronchoconstriction
  Bronchoprotection (%): 62 * %
[2]; 0.1 μg/kg i.t.
  Bronchoconstriction (ml overflow): 8 mL
[2]; 0.1 μg/kg i.t., inhibition of acetylcholine bronchoconstriction
  Bronchoprotection (%): 78 * %
[2]; 0.3 μg/kg i.t.
  Bronchoconstriction (ml overflow): 4 mL
[2]; 0.3 μg/kg i.t., inhibition of acetylcholine bronchoconstriction
  Bronchoprotection (%): 89 * %
[2]; 1 μg/kg i.t.
  Bronchoconstriction (ml overflow): 2 mL
[2]; [4]
  Bronchoprotection (%): 95 * %
[2]
  bronchoprotective FED: 0.3 µg/kg
[2]; i.t.
  minimum effective dose for bronchoprotection: 0.01 µg/kg
[2]; summary, 0.01 μg/kg
  Bronchoprotection (%): 32%
[2]; summary, 0.03 μg/kg
  Bronchoprotection (%): 62%
[2]; summary, 0.1 μg/kg
  Bronchoprotection (%): 78%
[2]; summary, 0.3 μg/kg
  Bronchoprotection (%): 89%
[2]; summary, 1 μg/kg
  Bronchoprotection (%): 95%

## COc1ccc(CC(C)NCC(O)c2ccc(O)c(NC=O)c2)cc1 (stereo not drawn) [Formoterol]
Heart rate; 10 μg/kg, 20 min after administration
  increase in heart rate: 21%
Heart rate; first dose increasing heart rate at least 10% vs vehicle, 20 min after administration
  Dose inducing side-effect (increase in heart rate): 10 µg/kg
[1]; 1 μg/kg i.t.
  Inhibition of cough (%) vs vehicle: 0%
  Number of coughs: 26
[1]; 3 μg/kg i.t.
  Inhibition of cough (%) vs vehicle: 71 * %
  Number of coughs: 7
[1]; 10 μg/kg i.t.
  Inhibition of cough (%) vs vehicle: 58 * %
  Number of coughs: 10
[1]; 3 μg/kg
  Anti-tussive effect (%): 71%
[1]; 10 μg/kg
  Anti-tussive effect (%): 58%

## COc1ccc2c3c1O[C@H]1[C@@H](O)C=C[C@H]4[C@@H](C2)N(C)CC[C@@]341 [Codeine]
[1]; 1 mg/kg i.t.
  Inhibition of cough (%) vs vehicle: 17%
  Number of coughs: 20
[1]; 3 mg/kg i.t.
  Inhibition of cough (%) vs vehicle: 42 * %
  Number of coughs: 14
[1]; 10 mg/kg i.t.
  Inhibition of cough (%) vs vehicle: 58 * %
  Number of coughs: 10
[1]; 30 mg/kg i.t.
  Inhibition of cough (%) vs vehicle: 71 * %
  Number of coughs: 7

## OCc1cc(C(O)CNCCCCCCOCCCCc2ccccc2)ccc1O (stereo not drawn) [Salmeterol]
Cough reflex
  effect on cough reflex: display anti-tussive effect

## CCc1cc2c(cc1CC)CC(NC[C@H](O)c1ccc(O)c3[nH]c(=O)ccc13)C2 [Indacaterol]
Heart rate; [3]
  Dose inducing side-effect (increase in heart rate): 100 µg/kg
Heart rate; guinea pig, in vivo, 20 min
  ratio dose inducing side-effect/bronchoprotective FED: 10
  safety margin, times less than for Olodaterol: 10
[1]; 3 μg/kg i.t.
  Inhibition of cough (%) vs vehicle: 0%
  Number of coughs: 26
[1]; 10 μg/kg i.t.
  Inhibition of cough (%) vs vehicle: 0%
  Number of coughs: 32
[1]; 30 μg/kg i.t.
  Inhibition of cough (%) vs vehicle: 0%
  Number of coughs: 38
[1]; 3 μg/kg
  Anti-tussive effect (%): 0%
[1]; 10 μg/kg
  Anti-tussive effect (%): 0%
[1]; 30 μg/kg
  Anti-tussive effect (%): 0%
[2]; 1 μg/kg i.t.
  Bronchoconstriction (ml overflow): 34 mL
[2]; [4]
  Bronchoprotection (%): 8%
[2]; 3 μg/kg i.t.
  Bronchoconstriction (ml overflow): 18 mL
[2]; 3 μg/kg i.t., inhibition of acetylcholine bronchoconstriction
  Bronchoprotection (%): 51 * %
[2]; 10 μg/kg i.t.
  Bronchoconstriction (ml overflow): 6 mL
[2]; 10 μg/kg i.t., inhibition of acetylcholine bronchoconstriction
  Bronchoprotection (%): 84 * %
[2]; 30 μg/kg i.t.
  Bronchoconstriction (ml overflow): 5 mL
[2]; 30 μg/kg i.t., inhibition of acetylcholine bronchoconstriction
  Bronchoprotection (%): 86 * %
[2]; Cavia porcellus, inhaled or nasal, i.t.
  ED50: 3 µg/kg
[2]
  bronchoprotective FED: 10 µg/kg
[2]; summary, 1 μg/kg
  Bronchoprotection (%): 8%
[2]; summary, 3 μg/kg
  Bronchoprotection (%): 51%
[2]; summary, 10 μg/kg
  Bronchoprotection (%): 84%
[2]; summary, 30 μg/kg
  Bronchoprotection (%): 86%
